# Laboratory results reported in patent US7795206B2, “Peptide that inhibits janus kinase” (YM Biosciences Australia Pty Ltd, priority 2001, dated 2010).
# How the values were obtained:
# [1] = test system: wild-type Ba/F3 cells grown upon IL-3; experiment: Ba/F3 proliferation assay (IL-3 dependent growth, MTT); type: cell-based, murine; settings: peptide 1 μM to 100 μM in PBS; cell number after three days by MTT assay; FIG. 5
# Experimental: FIG. 5. Ba/F3 cell assay: Inhibition of the growth of the IL-3 dependent growth of Ba/F3 cells has been brought about by the addition of a peptide derived from JAK2 PSL. PSLShort PAEFMRMI (SEQ ID NO:15) and PSLControl SPSKFRMPEAMIGND (SEQ ID NO:16) were added at concentrations ranging from IμM to 100 μM in phosphate buffered saline. Cell number after three days was measured by an MTT assay.
# These peptides were tested for biological activity by means of a proliferation assay using the murine growth factor dependent hematopoietic cell line Ba/F3. On the basis of our hypothesis of the role of how the PSL region might work, we reasoned that if these peptides were to supplant the PSL from the KLD of JAK2, then the JAK PTK activity would thereby either become unregulated, resulting in a IL-3 independent growth phenotype, or the normal IL-3 dependent growth of these cells would be inhibited. […] We hypothesize that the activity of the PSLshort peptide was dependent upon the presence of the JAK2 KLD, and conclude that its mode of action is by displacement of the PSL of JAK2 from the JAK2 KLD, resulting in unprimed JAK2 molecules that cannot be triggered by IL-3. […]
# The murine hematopoietic cell line Ba/F3 was grown in the presence of IL-3. […] Cell number after three days was measured by an MTT assay.
# [2] = test system: Ba/F3 cells transformed to factor independence by ectopic expression of TEL/JAK2 fusion; experiment: Ba/F3 proliferation assay, cells transformed to factor independence by TEL/JAK2; type: cell-based, murine; settings: oncogenic JAK2 (PTK domain fused to PNT domain of TEL); FIG. 5
sequence,measurement,setting,value
PAEFMRMI (homo sapiens) [PSLshort],inhibition of growth of wild-type Ba/F3 cells grown upon IL-3,[1],able to inhibit growth
same,inhibition of growth of Ba/F3 cells transformed to factor independence by TEL/JAK2,[2],unable to inhibit
